Measurements: patent US7662851B2, “Use of specific cyklolignans” (Axelar AB, priority 2001, dated 2010)
Read-outs that look alike come from different tables or passages of the source.

Columns and labels:
[1] = system: RD-ES Ewing's sarcoma cell line; assay: Cell viability (XTT), RD-ES; type: cell-based; details: Homo sapiens, 48 h, read-out: EC50 for cell viability
Procedure: (§1) Cell proliferation kit II (Roche Inc.) is based on colorimetric change of the yellow tetrazolium salt XTT in orange formazan dye by the respiratory chain of viable cells (Roehm, N W, et al., J Immunol Methods 142:257-265, 1991). Cells seeded at a concentration of 5000/well in 100 μl medium in a 96-well plate were treated with different drugs in the given concentration. After 24 or 48 h the cells were incubated, according to the manufacturer's protocol, with XTT labelling mixture. After 4 h the formazan dye is quantified using a scanning multiwell spectrophotometer with a 495-nm filter. The absorbance is directly correlated with the number of viable cells. The standard absorbance curve was drawn by means of untreated cells seeded at a concentration of from 1000 to 10 000 cells/well with an increasing rate of 1000 cells/well. All standards and experiments were performed in triplicates.
(§2) 12 different types of cell lines were seeded in 96-well plates (medium volume in a well was 100 μl), at a concentration of 10,000 cells/cm^2 in Minimal Essential Medium supplemented with fetal calf serum. When the cells had reached a concentration of 65,000 cells/cm^2, they were treated with different doses of podophyllotoxin and picropodophyllin for 48 h. Cell viability was then assayed (see above). […]

[2] = system: platelet-derived growth factor receptor (PDGFR); assay: Tyrosine phosphorylation of PDGFR in intact FM55 melanoma cells; type: cell-based; details: 0.05 μM, 1 h
Procedure: (§3) Cells were cultured to subconfluency in 6-cm plates, and then fresh medium containing 10% FBS and the desired compounds were added for 1 h. The cells were then lyzed and subjected to immunoprecipitation using specific antibodies. Immunoprecipitates were resolved by sodium dodecyl sulphate polyacrylamide gel electrophoresis (SDS-PAGE) and transferred to nitro-cellulose membranes and incubated with anti-phosphotyrosine antibody. Antibodies to actin (in cell extract) or IGF-1R beta subunit were used as loading controls. After detection the films were scanned for quantification.
(§4) FM55 melanoma cells were cultured in the same way as described in Experiment 1. When reaching a density of 65,000 cells/cm^2 in the dishes, they were treated for 1 h with 0 (control) and 0.05 μM of picropodophyllin and podophyllotoxin, respectively. The cells were then isolated and subjected to immunoprecipitation of the IGF-1R, fibroblast growth factor receptor (FGFR), platelet-derived growth factor receptor (PDGFR), epidermal growth factor receptor (EGFR), insulin receptor (IR) and insulin substrate-1 (IRS-1) using antibodies to respective molecules. IRS-1 is a substrate of IGF-1R, and therefore its phosphorylation is dependent on phosphorylated IGF-1R. Gelelectrophoresis, Western blotting and quantification of the different signals were performed as described above.

[3] = system: R- cells (IGF-1R negative fibroblasts); assay: Cell viability (XTT), R-; type: cell-based, murine; details: Mus musculus, Fibroblast, 48 h, read-out: EC50 for cell viability
Procedure: as §1, §2

[4] = system: SK-MEL-28 melanoma cell line; assay: Cell viability (XTT), SK-MEL-28; type: cell-based
Procedure: as §1, §2

[5] = system: PC-3 prostatic carcinoma cell line; assay: Cell viability (XTT), PC-3; type: cell-based; details: Homo sapiens, read-out: EC50 for cell viability
Procedure: as §1, §2

[6] = biological target: IGF-1R (Homo sapiens, UniProt P08069); assay: Tyrosine phosphorylation of IGF-1R in intact FM55 melanoma cells; type: cell-based; parameters: endogenous in cells; details: 0.05 μM, 1 h; for Level of phosphorylation in intact cells, substrate IGF-1R: FM55 cells, Experiment 3; for Level of IGF-1R phosphorylation in intact cells: FM55 melanoma cells, means of 3 experiments
Chain of IGF-1R (P08069 31-1367): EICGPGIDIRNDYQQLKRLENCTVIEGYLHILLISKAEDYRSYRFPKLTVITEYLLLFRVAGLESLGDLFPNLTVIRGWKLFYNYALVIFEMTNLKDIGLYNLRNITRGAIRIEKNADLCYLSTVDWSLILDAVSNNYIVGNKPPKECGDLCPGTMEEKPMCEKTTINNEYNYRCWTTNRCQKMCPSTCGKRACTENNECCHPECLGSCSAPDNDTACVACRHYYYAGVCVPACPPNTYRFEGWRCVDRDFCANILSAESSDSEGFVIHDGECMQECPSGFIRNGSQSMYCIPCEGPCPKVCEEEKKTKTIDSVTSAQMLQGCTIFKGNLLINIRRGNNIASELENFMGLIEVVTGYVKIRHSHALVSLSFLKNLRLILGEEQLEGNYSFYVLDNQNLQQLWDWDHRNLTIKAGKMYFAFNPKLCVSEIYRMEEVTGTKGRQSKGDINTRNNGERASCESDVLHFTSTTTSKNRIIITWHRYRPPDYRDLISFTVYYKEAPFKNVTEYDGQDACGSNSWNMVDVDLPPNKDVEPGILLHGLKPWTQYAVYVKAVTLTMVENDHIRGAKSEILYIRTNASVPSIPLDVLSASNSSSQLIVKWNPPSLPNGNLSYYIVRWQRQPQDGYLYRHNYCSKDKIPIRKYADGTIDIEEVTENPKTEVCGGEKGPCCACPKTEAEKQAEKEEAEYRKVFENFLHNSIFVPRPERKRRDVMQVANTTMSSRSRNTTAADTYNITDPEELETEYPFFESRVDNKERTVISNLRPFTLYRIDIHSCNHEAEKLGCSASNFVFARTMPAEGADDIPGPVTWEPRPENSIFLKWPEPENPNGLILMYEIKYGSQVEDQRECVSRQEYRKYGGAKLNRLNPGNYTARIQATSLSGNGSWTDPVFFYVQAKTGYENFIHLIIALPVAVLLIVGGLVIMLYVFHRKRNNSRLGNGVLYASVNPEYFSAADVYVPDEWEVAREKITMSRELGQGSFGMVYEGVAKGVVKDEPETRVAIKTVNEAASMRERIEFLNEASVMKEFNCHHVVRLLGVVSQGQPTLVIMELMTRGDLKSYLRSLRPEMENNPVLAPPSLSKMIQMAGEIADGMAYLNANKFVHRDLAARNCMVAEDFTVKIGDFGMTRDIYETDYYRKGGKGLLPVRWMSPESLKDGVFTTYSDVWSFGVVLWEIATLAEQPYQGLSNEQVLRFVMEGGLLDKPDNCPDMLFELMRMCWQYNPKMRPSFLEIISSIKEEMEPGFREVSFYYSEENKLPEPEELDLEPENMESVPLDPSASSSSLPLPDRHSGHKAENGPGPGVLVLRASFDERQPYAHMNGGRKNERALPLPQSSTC
Procedure: as §3
The isolated cells were then lyzed in 10 ml ice-cold PBSTDS containing protease inhibitors (Carlberg, M., et al., J Biol Chem 271:17453-17462, 1996). 50 μl protein A or G agarose was added in 1 ml sample and incubated for 15 min at 4° C. on an orbital shaker. After centrifugation for 10 min at 10,000 r/min at 4° C. the supernatant was saved. The protein content was determined by a dye-binding assay with a reagent purchased from Bio-Rad. Bovine serum albumin was used as a standard. 15 μl Protein G Plus agarose and 5 μl anti-IGF-1R were added. After a 3 h incubation at 4° C. on an orbital shaker the precipitate was collected by pulse centrifugation in a micro centrifuge at 14,000×g for 10 s. The supernatant was discarded and the pellet was washed 3 times with PBSTDS.
Protein samples were solved in a 2×-sample buffer containing Laemmli buffer and 0.5% […] and boiled for 5 min at 96° C. Samples were separated by SDS-PAGE with a 4% stacking gel and 7.5% separation gel. Molecular weight markers (Bio Rad, Sweden) were run simultaneously in all experiments.
Following SDS-PAGE the proteins were transferred overnight to nitro-cellulose membranes (Hybond, Amersham, UK) and then blocked for 1 h at room temperature in a solution of 4% skimmed milk powder and 0.02% Tween 20 in PBS, pH 7.5. Incubations with the primary antibodies were performed for 1 h at room temperature, followed by 3 washes with PBS with Tween and incubation with the second antibody for 1 h room temperature. After another 3 washes the membranes were incubated with Streptavidin-labelled horseradish peroxidase for 30 min and then detected using Amersham ECL system (Amersham, UK). The films were scanned by Fluor-S (BioRad).
FM55 melanoma cells were seeded in 6-cm dishes, at a concentration of 10,000 cells/cm^2 in Minimal Essential Medium supplemented with 10% fetal calf serum (FCS). When the cells reached a density of 65,000 cells/cm^2 in the dishes, they were treated for 1 h with 0.05 μM podophyllotoxin, deoxypodophyllotoxin, picropodophyllin, deoxypicropodophyllin, 4′-demethyl-7-(4,6-O-ethylidene-β-D-glucopyranosyl)epipodophyllotoxin (etoposide) and podophyllotoxin-4,6-O-benzylidene-β-D-glucopyranoside (pf-4,6-O). Etoposide and pf-4,6-O were also administered at 15 μM. The cells were then harvested for assay and quantification of IGF-1R phosphorylation as described in Experiment 1. The values shown in Table 1 represent means of 3 experiments.
as §4

[7] = system: P6 cells (fibroblasts with overexpressed IGF-1R); assay: Cell viability (XTT), P6; type: cell-based, murine; details: Mus musculus, Fibroblast, 48 h, read-out: EC50 for cell viability
Procedure: as §1, §2

[8] = system: BE malignant melanoma cell line; assay: Cell viability (XTT), BE; type: cell-based; details: 48 h
Procedure: as §1, §2

With `COc1cc([C@@H]2c3cc4c(cc3[C@H](O)[C@H]3COC(=O)[C@@H]23)OCO4)cc(OC)c1OC` [Picropodophyllin, picropodophyllin] the EC50 [1] was 0.1 µM, the “Level of phosphorylation in intact cells, substrate PDGFR” value [2] was 104 % OD and the EC50 ([3]; R- (IGF-1R negative fibroblasts)) was over 15 µM. For the same compound, the EC50 ([4]; Homo sapiens, SK-MEL-28, 48 h; read-out: EC50 for cell viability) was 0.03 µM, the EC50 ([5]; PC-3, 48 h) was 0.09 µM and the “Level of phosphorylation in intact cells, substrate IGF-1R” value [6] was 20 % OD. For the same compound, the “Level of IGF-1R phosphorylation in intact cells” value [6] was 8 % OD and the EC50 ([7]; P6 (fibroblasts with overexpressed IGF-1R)) was 0.02 µM.
With `COc1cc([C@@H]2c3cc4c(cc3[C@H](O)[C@H]3COC(=O)[C@H]23)OCO4)cc(OC)c1OC` [Podophyllotoxin, podophyllotoxin] the EC50 [8] was 0.05 µM, the EC50 [1] was 0.1 µM and the “Level of phosphorylation in intact cells, substrate PDGFR” value [2] was 100 % OD. The EC50 [3] was over 15 µM, the EC50 ([4]; Homo sapiens, SK-MEL-28, 48 h, read-out: EC50 for cell viability) was 0.02 µM and the EC50 ([5]; 48 h) was 0.06 µM. For the same compound, the “Level of phosphorylation in intact cells, substrate IGF-1R” value [6] was 7 % OD, the “Level of IGF-1R phosphorylation in intact cells” value [6] was 5 % OD and the EC50 [7] was 0.03 µM.
